Laboratory results from ChEMBL document CHEMBL1201862, “PubChem BioAssay data set” (2004).
Activity calls are given as the source filed them.

Experiments:
[1] = target: T1, Dual specificity protein phosphatase 3 (Homo sapiens, UniProt P51452); assay: SAR VHR1 absorbance Assay for In Vitro dose response studies. [Related pubchem assays (depositor defined):AID1654, AID1661, AID1878, AID1992, AID2004]
[2] = target: T2, Dual specificity protein phosphatase 6 (Rattus norvegicus, UniProt Q64346); format: functional;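 note: confirmatory in vitro dose-response testing of MKP-3 inhibition; recombinant His-tagged MKP-3 made in E. coli BL21 with OMFP substrate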
T2 sequence (Q64346 whole entry): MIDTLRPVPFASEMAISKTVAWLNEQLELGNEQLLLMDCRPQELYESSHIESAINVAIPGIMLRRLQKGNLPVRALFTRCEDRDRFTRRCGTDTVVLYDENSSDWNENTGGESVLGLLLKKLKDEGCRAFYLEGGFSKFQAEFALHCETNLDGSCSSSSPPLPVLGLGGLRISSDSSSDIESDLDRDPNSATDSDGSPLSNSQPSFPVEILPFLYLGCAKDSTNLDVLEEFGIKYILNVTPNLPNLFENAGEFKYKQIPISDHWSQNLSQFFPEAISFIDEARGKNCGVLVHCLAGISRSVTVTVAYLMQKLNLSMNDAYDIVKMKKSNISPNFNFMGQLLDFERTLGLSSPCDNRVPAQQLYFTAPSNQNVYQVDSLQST

[3] = target: T1, Dual specificity protein phosphatase 3; assay: SAR VHR1 Fluorescent Assay for In Vitro dose response studies Set 2. [Related pubchem assays (depositor defined):AID1654, AID1661, AID1878]; format: functional
[4] = target: T3, Tyrosine-protein phosphatase non-receptor type 7 (Homo sapiens, UniProt P35236); assay: redox-active compounds inhibiting HePTP phosphatase – biochemical, fluorescence, mechanism study (AID 2068); format: functional
T3 sequence (P35236 whole entry): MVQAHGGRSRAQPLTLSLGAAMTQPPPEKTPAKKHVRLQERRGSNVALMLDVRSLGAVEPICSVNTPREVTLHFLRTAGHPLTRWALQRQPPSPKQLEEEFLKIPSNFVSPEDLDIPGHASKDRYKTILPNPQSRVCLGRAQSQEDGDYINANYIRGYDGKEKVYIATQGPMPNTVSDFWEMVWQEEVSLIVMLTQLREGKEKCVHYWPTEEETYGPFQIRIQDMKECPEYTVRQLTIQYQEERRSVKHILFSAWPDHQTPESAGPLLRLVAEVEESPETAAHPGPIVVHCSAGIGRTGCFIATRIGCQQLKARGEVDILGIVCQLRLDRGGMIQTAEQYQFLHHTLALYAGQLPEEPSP

[5] = target: T1, Dual specificity protein phosphatase 3; assay: SAR VHR1 Fluorescent Assay for In Vitro dose response studies. [Related pubchem assays (depositor defined):AID1654, AID1661, AID1878, AID1992, AID2004, AID2070, AID2085]; format: functional
[6] = BJeH cell viability loss – BJeH cells, dry powder, counter-screen for Ras selective lethality project, dose response (AID 493054); format: functional, cell-based
[7] = HRAS-V12 fibroblast viability reduction – cell-based, Alamar Blue, dry powder, Ras selective lethality project, primary screen (AID 493045); format: functional; details: BJeLR
[8] = BJeHLT cell viability loss – BJeHLT cells, dry powder, counter-screen for Ras selective lethality project, dose response (AID 493052); format: functional, cell-based; details: Homo sapiens
[9] = DRD BJ cell killing, Ras synthetic lethality – DRD BJ fibroblasts, HRASV12, dry powder, dose response (AID 493049); format: functional, cell-based
[10] = target: T4, Caspase-3 (Homo sapiens, UniProt P42574); assay: activation of caspase-3 zymogen – biochemical, absorbance, dose response (AID 489014)
T4 sequence (P42574 whole entry): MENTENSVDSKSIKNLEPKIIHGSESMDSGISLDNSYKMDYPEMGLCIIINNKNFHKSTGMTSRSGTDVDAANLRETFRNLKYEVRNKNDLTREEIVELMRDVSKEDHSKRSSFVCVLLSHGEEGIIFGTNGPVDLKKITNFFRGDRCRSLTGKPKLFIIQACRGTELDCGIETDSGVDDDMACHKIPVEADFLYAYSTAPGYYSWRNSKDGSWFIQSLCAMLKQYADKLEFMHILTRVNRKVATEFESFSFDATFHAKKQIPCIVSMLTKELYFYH

[11] = target: T5, Caspase-7 (Homo sapiens, UniProt P55210); assay: activation of caspase-7 zymogen – biochemical, absorbance, counter-screen for procaspase-3 activator project, dose response (AID 489013)
T5 sequence (P55210 whole entry): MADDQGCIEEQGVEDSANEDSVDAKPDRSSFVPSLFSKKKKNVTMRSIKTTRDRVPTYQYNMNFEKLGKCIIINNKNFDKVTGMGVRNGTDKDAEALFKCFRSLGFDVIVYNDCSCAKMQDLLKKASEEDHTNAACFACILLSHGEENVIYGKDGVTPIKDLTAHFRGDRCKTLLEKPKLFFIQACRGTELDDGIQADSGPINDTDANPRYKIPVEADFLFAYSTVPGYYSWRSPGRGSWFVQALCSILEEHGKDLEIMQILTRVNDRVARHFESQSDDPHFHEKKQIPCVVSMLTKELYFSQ

[12] = target: X-box-binding protein 1 (Homo sapiens, UniProt P17861); format: functional, Cricetulus griseus;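 note: confirmatory dose-response counter-screen serving a CHOP assay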
[13] = target: Hexokinase (Trypanosoma brucei, UniProt Q38C41); assay: Confirmation assay for inhibitors of Trypanosoma brucei hexokinase 1-Analogue-first series. [Related pubchem assays (depositor defined):AID1430, AID1632, AID2516, AID2560, AID2579, AID2600, AID449725, AID492951]; format: functional
[14] = target: T6, Cannabinoid receptor 2 (Homo sapiens, UniProt P34972); assay: SAR analysis of agonists of the Cannabinoid Receptor 2 using an Image-Based Assay - Set 2. [Related pubchem assays (depositor defined):AID1961, AID1965]; format: functional
[15] = target: G-protein coupled receptor 55 (Homo sapiens, UniProt Q9Y2T6); assay: SAR analysis of selective Agonists of GPR55 using an Image-Based Assay - Set 2. [Related pubchem assays (depositor defined):AID1961, AID1965]; format: functional
[16] = target: T6, Cannabinoid receptor 2; assay: SAR analysis of antagonists of the Cannabinoid Receptor 2 using an Image-Based Assay - Set 2. [Related pubchem assays (depositor defined):AID1961, AID1965]; format: functional
[17] = target: T7, Cannabinoid receptor 1 (Homo sapiens, UniProt P21554); assay: SAR analysis of agonists of the Cannabinoid Receptor 1 using an Image-Based Assay - Set 3. [Related pubchem assays (depositor defined):AID1961, AID1965]; format: functional
[18] = target: T8, G-protein coupled receptor 35 (Homo sapiens, UniProt Q9HC97); assay: SAR analysis of Agonists of the GPR35 Receptor using an Image-Based Assay - Set 3. [Related pubchem assays (depositor defined):AID1961, AID1965]; format: functional
[19] = target: T8, G-protein coupled receptor 35; assay: SAR analysis of Antagonists of the GPR35 Receptor using an Image-Based Assay - Set 4. [Related pubchem assays (depositor defined):[…]]; format: functional
[20] = target: T7, Cannabinoid receptor 1; assay: SAR analysis of antagonists of the Cannabinoid Receptor 1 using an Image-Based Assay - Set 3. [Related pubchem assays (depositor defined):AID1961, AID1965]; format: functional
[21] = target: DNA dC->dU-editing enzyme APOBEC-3G (Homo sapiens, UniProt Q9HC16); format: functional;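 note: Dose-response counterscreen measuring inhibition of APOBEC3G DNA deaminase activity, run while confirming APOBEC3A inhibitors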
[22] = target: DNA dC->dU-editing enzyme APOBEC-3A (Homo sapiens, UniProt P31941); assay: Dose Response confirmation of small molecule APOBEC3A DNA Deaminase Inhibitors via a fluorescence-based single-stranded DNA deaminase assay. [Related pubchem assays (depositor defined):AID493011, AID493024]; format: functional
[23] = target: T9, Streptokinase A (Streptococcus pyogenes serotype M1, UniProt P10520); assay: viability-normalized secreted streptokinase activity reduction – plasminogen activation absorbance, OD405, dose response (AID 1914); format: functional, Streptococcus pyogenes M1 GAS;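 note: secreted streptokinase activity via plasminogen activation per viability signal from cell pellet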
T9 sequence (P10520 whole entry): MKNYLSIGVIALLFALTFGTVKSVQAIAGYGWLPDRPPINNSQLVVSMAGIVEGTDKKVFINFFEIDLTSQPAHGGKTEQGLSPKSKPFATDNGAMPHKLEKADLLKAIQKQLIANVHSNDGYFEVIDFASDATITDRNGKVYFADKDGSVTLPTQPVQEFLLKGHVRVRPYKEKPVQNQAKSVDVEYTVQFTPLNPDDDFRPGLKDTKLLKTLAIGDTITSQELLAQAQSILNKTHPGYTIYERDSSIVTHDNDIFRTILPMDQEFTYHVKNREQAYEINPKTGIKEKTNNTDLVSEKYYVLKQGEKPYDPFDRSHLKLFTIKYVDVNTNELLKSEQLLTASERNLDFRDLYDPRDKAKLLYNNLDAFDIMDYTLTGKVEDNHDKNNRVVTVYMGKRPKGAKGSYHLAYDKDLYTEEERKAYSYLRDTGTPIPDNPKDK

[24] = target: Albumin (Bos taurus, UniProt P02769); assay: Counterscreen for inhibitors of T-cell receptor (TCR)-CD3 interaction: Fluorescence-based biochemical high throughput dose response assay to identify inhibitors of T-cell receptor (TCR)-CD3 interaction using a TAMRA-labeled BSA probe.; format: functional
[25] = target: NACHT, LRR and PYD domains-containing protein 3 (Homo sapiens, UniProt Q96P20); assay: NALP3 inhibitors in yeast, dose response, luminescent (AID 488799); format: functional
[26] = target: T10, Corticotropin-releasing factor receptor 2/Corticotropin-releasing factor-binding protein (Homo sapiens, UniProt P24387+Q13324); assay: activators of CRF receptor 2 with binding protein – uHTS hits, confirmation (AID 602473); format: functional; details: read-out: EC50_Mean
T10 sequence (Q13324 whole entry): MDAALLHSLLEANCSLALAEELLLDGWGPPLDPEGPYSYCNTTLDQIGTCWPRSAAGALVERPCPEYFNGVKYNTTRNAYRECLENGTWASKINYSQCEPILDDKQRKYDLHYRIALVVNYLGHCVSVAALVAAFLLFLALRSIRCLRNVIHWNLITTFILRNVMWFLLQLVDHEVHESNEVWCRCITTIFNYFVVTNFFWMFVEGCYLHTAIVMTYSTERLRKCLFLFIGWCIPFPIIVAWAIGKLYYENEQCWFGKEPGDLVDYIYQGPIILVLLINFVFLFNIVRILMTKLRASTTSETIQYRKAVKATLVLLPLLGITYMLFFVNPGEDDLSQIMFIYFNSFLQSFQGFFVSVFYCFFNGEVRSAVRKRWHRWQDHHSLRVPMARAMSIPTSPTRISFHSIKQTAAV
T10 sequence (P24387 whole entry): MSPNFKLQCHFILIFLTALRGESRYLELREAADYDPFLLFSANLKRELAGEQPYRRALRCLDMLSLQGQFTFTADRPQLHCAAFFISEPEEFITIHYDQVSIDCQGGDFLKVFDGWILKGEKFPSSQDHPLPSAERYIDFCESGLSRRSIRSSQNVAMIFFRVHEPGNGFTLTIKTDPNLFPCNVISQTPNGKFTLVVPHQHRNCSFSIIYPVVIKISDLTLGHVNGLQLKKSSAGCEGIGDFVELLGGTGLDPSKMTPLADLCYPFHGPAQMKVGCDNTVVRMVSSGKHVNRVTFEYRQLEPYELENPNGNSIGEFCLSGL

[27] = test system: Streptococcus sp. 'group A'; assay: Streptococcus pyogenes SK(-)GAS viability under kanamycin – luminescence, BacTiterGlo, confirmation, counter-screen for streptokinase expression inhibitor project, dose response (AID 1900); format: functional, organism-based
[28] = test system: Streptococcus; assay: GAS UMAA2166 growth inhibition – luminescence, BacTiterGlo, counter-screen for streptokinase expression inhibitor project, dose response (AID 1915); format: functional, organism-based;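 note: potency for reduction of bacterial viability or growth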

T8 sequence (Q9HC97 whole entry): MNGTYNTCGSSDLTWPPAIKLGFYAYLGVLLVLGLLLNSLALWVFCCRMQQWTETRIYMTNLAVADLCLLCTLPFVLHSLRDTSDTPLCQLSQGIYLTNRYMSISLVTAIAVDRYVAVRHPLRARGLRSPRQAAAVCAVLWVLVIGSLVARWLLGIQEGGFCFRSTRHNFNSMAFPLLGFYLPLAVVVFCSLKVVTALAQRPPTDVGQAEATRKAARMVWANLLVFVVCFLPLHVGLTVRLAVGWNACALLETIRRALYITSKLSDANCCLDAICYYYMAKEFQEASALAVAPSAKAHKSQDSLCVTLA
T7 sequence (P21554 whole entry): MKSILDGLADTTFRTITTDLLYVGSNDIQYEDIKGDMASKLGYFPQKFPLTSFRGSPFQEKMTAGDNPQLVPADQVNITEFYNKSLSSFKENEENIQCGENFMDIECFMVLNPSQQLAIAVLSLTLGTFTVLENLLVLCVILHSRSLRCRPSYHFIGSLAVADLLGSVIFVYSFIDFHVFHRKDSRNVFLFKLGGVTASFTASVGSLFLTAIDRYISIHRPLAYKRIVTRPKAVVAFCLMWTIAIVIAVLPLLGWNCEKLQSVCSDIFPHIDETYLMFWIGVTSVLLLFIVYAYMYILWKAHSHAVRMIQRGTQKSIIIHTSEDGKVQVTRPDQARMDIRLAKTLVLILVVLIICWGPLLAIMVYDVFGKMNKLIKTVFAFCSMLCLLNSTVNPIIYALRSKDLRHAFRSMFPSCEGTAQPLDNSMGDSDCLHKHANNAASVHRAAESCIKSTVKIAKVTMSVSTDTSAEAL
T1 sequence (P51452 whole entry): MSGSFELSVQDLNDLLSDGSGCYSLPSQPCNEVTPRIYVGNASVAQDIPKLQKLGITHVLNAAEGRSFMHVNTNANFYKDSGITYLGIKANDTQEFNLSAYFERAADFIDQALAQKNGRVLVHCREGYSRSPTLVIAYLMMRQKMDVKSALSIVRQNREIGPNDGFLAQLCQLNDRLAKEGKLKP
T6 sequence (P34972 whole entry): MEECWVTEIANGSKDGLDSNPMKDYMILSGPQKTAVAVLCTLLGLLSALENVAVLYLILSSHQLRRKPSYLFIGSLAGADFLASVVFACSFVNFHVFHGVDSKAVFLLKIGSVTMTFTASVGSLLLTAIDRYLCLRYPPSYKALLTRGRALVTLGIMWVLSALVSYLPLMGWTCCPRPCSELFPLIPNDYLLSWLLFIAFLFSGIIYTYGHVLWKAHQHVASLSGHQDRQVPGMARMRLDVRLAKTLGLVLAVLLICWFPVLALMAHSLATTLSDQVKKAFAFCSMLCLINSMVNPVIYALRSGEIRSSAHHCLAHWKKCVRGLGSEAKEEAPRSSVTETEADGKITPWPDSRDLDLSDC
Sequence of DNA dC->dU-editing enzyme APOBEC-3A (P31941 whole entry): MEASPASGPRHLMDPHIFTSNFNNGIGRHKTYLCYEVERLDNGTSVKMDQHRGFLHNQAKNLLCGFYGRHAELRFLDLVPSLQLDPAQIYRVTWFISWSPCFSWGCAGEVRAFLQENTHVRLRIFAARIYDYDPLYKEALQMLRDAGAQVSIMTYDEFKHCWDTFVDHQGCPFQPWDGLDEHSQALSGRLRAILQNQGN
Sequence of G-protein coupled receptor 55 (Q9Y2T6 whole entry): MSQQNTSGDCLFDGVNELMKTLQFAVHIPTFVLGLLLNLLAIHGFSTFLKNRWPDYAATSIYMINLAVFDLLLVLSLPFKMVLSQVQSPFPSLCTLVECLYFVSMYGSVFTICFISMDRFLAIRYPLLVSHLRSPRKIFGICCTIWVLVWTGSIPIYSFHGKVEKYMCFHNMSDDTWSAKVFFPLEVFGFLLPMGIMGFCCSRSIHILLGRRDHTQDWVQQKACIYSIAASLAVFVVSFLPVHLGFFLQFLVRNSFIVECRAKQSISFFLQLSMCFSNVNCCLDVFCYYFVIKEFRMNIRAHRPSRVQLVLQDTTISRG
Sequence of Hexokinase (Q38C41 whole entry): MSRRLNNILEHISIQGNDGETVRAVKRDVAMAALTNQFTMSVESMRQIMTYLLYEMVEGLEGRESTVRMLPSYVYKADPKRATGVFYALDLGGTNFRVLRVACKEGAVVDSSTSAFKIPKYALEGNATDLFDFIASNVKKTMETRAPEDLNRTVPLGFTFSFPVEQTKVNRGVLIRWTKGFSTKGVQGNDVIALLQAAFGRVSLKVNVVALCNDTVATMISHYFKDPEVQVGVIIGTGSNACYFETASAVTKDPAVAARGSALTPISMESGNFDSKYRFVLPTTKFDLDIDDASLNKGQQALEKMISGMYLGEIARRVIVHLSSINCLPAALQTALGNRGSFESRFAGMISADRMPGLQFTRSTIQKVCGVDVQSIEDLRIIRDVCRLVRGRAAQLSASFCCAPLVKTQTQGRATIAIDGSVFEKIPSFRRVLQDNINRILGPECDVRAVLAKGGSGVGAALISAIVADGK
Sequence of DNA dC->dU-editing enzyme APOBEC-3G (Q9HC16 whole entry): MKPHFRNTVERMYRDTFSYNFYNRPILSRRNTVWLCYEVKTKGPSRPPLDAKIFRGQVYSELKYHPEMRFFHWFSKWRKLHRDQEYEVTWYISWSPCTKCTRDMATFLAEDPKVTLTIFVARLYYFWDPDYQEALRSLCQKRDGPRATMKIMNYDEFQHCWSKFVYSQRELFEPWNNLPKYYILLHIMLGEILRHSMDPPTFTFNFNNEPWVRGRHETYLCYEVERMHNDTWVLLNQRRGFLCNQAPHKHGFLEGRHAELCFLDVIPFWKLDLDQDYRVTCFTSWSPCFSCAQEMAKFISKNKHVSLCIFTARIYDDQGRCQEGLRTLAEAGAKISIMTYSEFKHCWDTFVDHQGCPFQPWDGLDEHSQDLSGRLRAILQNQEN
Sequence of X-box-binding protein 1 (P17861 whole entry): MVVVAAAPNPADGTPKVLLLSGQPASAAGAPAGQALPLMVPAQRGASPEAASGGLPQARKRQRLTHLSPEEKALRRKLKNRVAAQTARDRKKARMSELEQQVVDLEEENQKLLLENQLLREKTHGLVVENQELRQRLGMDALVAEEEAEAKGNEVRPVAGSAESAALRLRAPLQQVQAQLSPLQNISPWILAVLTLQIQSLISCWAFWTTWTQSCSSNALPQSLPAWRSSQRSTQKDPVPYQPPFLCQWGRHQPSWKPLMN
Sequence of NACHT, LRR and PYD domains-containing protein 3 (Q96P20 whole entry, the tested form may be a part): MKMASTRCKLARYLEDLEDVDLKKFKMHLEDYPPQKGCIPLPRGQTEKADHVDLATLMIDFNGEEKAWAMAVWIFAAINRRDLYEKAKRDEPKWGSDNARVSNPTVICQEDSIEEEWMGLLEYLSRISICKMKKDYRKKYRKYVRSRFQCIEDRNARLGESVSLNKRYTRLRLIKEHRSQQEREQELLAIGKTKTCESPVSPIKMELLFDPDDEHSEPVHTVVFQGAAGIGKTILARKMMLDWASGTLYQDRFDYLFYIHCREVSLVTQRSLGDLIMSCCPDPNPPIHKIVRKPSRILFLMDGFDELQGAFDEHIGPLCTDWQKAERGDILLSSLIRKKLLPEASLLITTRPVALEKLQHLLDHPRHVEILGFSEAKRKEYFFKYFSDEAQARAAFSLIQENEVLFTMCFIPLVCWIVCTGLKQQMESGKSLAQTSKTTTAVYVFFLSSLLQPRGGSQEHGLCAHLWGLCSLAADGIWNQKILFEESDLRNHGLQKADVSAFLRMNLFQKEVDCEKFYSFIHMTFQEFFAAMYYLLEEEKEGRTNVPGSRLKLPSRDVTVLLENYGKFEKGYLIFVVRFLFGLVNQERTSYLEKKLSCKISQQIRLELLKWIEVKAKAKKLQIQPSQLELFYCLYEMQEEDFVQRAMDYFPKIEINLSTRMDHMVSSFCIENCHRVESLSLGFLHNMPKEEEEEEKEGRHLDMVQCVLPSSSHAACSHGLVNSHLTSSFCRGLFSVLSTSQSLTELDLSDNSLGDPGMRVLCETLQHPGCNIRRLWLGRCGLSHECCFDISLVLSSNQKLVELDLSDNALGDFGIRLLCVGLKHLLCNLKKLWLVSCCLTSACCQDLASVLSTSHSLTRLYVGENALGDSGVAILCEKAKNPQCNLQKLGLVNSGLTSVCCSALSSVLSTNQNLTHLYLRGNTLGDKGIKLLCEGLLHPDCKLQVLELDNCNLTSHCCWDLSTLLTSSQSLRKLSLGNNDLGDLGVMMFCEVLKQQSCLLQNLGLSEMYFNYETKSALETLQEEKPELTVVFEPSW
Sequence of Albumin (P02769 whole entry, the tested form may be a part): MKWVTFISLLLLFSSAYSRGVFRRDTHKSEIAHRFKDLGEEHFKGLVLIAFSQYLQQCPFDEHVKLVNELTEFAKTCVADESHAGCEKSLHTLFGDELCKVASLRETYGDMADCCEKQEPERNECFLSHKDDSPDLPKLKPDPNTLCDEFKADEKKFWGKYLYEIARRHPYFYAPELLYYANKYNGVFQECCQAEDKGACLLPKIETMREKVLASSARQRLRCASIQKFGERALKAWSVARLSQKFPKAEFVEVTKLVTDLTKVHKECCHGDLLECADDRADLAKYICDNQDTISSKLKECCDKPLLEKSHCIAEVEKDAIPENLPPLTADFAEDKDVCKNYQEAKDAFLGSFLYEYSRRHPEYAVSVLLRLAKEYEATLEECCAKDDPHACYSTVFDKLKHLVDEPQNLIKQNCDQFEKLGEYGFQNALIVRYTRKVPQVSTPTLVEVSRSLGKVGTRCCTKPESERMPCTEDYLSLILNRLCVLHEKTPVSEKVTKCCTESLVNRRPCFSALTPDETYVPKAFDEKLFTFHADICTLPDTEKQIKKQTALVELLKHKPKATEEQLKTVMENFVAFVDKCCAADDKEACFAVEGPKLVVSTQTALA

NS(=O)(=O)c1cccc(C(=O)NC2CCSc3ccccc32)c1 (configuration not stated)
IC50 [1]: > 100 µM (inactive) | IC50 [2]: > 100 µM (inactive) | IC50 [3]: > 100 µM (inactive) | IC50 [4]: > 100 µM (inactive) | IC50 [5]: > 100 µM (inactive)

COc1ccc(N(C(=O)CCl)C(C)(C)C(=O)NCCc2ccccc2)cc1Cl
AC50 [6]: 0.254 µM (active) | AC50 [7]: 0.058 µM (active) | AC50 [8]: 0.127 µM (active) | AC50 [9]: 0.06 µM (active)

CC(NC(=O)c1cc2cc([N+](=O)[O-])ccc2oc1=O)C1CCCO1 (configuration not stated)
EC50 [10]: 13.4 µM (inactive) | EC50 [11]: 20.2 µM (inactive)

CCCOc1ccc(N2C(=O)CC(SC(=NC)Nc3ccc(F)cc3)C2=O)cc1 (configuration not stated)
Absolute IC50 (XBP1) [12]: 10 µM

O=C(NCCc1ccccc1)C(c1cccs1)N(C(=O)CCl)c1cccc(Cl)c1 (configuration not stated)
AC50 [6]: 0.544 µM (active) | AC50 [7]: 0.156 µM (active) | AC50 [8]: 0.331 µM (active) | AC50 [9]: 0.154 µM (active)

N#Cc1ccc(Oc2ccc3c(c2)B(O)OC3)cc1
IC50 [13]: > 25 µM (inactive)

CCCc1cc(C(=O)Nc2cc(S(=O)(=O)N3CCOCC3)ccc2OC)sc1C
EC50 [14]: > 32 µM (inactive) | EC50 [15]: > 32 µM (inactive) | IC50 [16]: > 32 µM (inactive) | EC50 [17]: > 32 µM (inactive) | EC50 [18]: > 32 µM (inactive) | IC50 [19]: > 32 µM (inactive) | IC50 [20]: 7.68 µM (active)

COc1ccccc1OC(C)C(=O)N1CCC(Cc2ccccc2)CC1 (configuration not stated)
IC50 [21]: 6.99 µM (active) | IC50 [22]: 7.11 µM (active)

CC(C)(C)c1ccc(C(=O)Nc2cc(Br)ccc2C(=O)O)cc1
IC50 [13]: 2.39 µM (active)

CCN1CCN(c2ccc(S(=O)(=O)N3CCCCC3)cc2NC(=O)c2ccc(OC(F)F)cc2)CC1
IC50 [21]: 9.05 µM (active) | IC50 [22]: 10.9 µM (active)

Cn1c(=O)c(C(=O)NNC(=O)c2ccccc2F)c(O)c2ccccc21
EC50 [23]: > 150 µM (not active) | IC50 [24]: > 94.1 µM (inactive) | IC50 [25]: 1.94 µM (active) | EC50 [26]: 5.36 µM (active) | EC50 [27]: 4.65 µM (active) | EC50 [28]: 18.6 µM (active)

COc1ccc2c(c1)cc(C)c1nnc(SCC(=O)Nc3nc(C)cs3)n12
EC50 [14]: > 32 µM (inactive) | EC50 [15]: > 32 µM (inactive) | IC50 [16]: > 32 µM (inactive) | EC50 [17]: > 32 µM (inactive) | EC50 [18]: > 32 µM (inactive) | IC50 [19]: > 32 µM (inactive) | IC50 [20]: > 32 µM (inactive)
